Read-outs that look alike come from different tables or passages of the source. Where no end group is shown, it is not given here.

Common to all, as to format: cell-based
For one series, the system named is Pseudomonas aeruginosa. Particulars: 18 h. The method, then:
(§1) Bacteria (2×10E6 CFU/ml) were suspended in MHB+0.9% NaCl and were mixed 1:1 (vol/vol) with peptides dissolved in the same medium in various concentrations (final conc. 0-10 μM) and added to Bioscreen C analyzer plates (Oy Growth Curves Ab Ltd., Helsinki, Finland) and incubated for 18 h at 37° C. while shaking (200 rpm) in a Bioscreen C analyzer (Oy Growth Curves Ab Ltd). The OD (600 nm) was measured every 15 min. Minimal Inhibitory Concentrations (MIC values) were assessed for each peptide.

Another series concerns Staphylococcus aureus. Particulars: 18 h. The method, then:
as §1

Series [1] relates to primary human nasal epithelial cells. Kind of series: Toxicity measurement (WST-1 conversion). Also noted: Toxicity: key to the marks not given beside the values. Here is the method:
The cytotoxic effect of all peptides was determined as previously described (2) using primary human nasal epithelial cells, obtained by nasal brushing of healthy individuals.
Cells were grown to confluence in 96-well plates in Bronchial Epithelial Cell Growth Medium (BEPC, Lonza) at 37° C. and 5% CO2. Peptides were diluted in the same medium to a final concentration of 5 μM and applied to the washed (PBS, twice) cells and incubated for 3 hours or 24 hours at 37° C. After incubation, the medium was removed, cells were washed twice (PBS) and fresh BEPC containing 10% (v/v) cell proliferation reagent WST-1 (Roche) was added to each well.
Conversion of WST-1 is indicative for cell viability and reduced conversion by cells is a measure for cytotoxic effects exerted by peptides. After incubation for 30 minutes at 37° C. the absorbance of each well was measured at 450 nm and 650 nm (reference wavelength). Controls included cells exposed to peptide-free medium (set to 100% WST-1 conversion) and wells without cells (background). Results are based upon 5 individual experiments and defined as follows: “0”, no toxicity; “+”, weakly toxic; “++”, moderately toxic; “+++”, toxic; “++++”, very toxic.

For the molecule “APKAMRRWVQRWIRRWRPKVFQVTGSSA-NH2 [SEQ ID NO: 22]”, the “Bioscreen MIC values Pseudomonas aeruginosa” value in the series with Pseudomonas aeruginosa amounted to 10 µM. Further, the “Bioscreen MIC values Staphylococcus aureus” value with Staphylococcus aureus is more than 10 µM.

On to “RRWVQRWIRRWRKVAAARRWVQRWIRRWRPKV-NH2 [SEQ ID NO: 13]”, for which, in the series with Pseudomonas aeruginosa, the “Bioscreen MIC values Pseudomonas aeruginosa” value came to 1.25 µM. In addition, the “Bioscreen MIC values Staphylococcus aureus” value with Staphylococcus aureus turned out to be 1.25 µM.

As for “APKAMWVQRWIRRWRPLQKKGI-NH2 [SEQ ID NO: 27]”, in the series on Pseudomonas aeruginosa, the “Bioscreen MIC values Pseudomonas aeruginosa” value was more than 10 µM. Further, the “Bioscreen MIC values Staphylococcus aureus” value in the series on Staphylococcus aureus is more than 10 µM. For the same molecule, the “toxicity, in words” value in series [1] is reported as “weakly toxic”.

Take “APKAMRRWVQRWIRRWRPRV-NH2 [SEQ ID NO: 17]”: in the series with Pseudomonas aeruginosa, the “Bioscreen MIC values Pseudomonas aeruginosa” value amounted to 5 µM. Besides, the “Bioscreen MIC values Staphylococcus aureus” value in the series on Staphylococcus aureus is more than 10 µM.

In the case of “RRWVQRWIRRWRKWV-NH2 [SEQ ID NO: 7, RRWVQRWIRRWRKWV]”, the “Bioscreen MIC values Pseudomonas aeruginosa” value with Pseudomonas aeruginosa is 1.25 µM. Besides, in the series with Staphylococcus aureus, the “Bioscreen MIC values Staphylococcus aureus” value was determined as 2.5 µM.

As to `CC[C@H](C)[C@H](NC(=O)[C@H](CCCCN)NC(=O)[C@H](CCC(=O)O)NC(=O)[C@H](CCCCN)NC(=O)[C@H](CO)NC(=O)[C@H](CCCCN)NC(=O)[C@H](CCCNC(=N)N)NC(=O)[C@H](Cc1ccccc1)NC(=O)[C@H](Cc1ccccc1)NC(=O)[C@H](CC(=O)O)NC(=O)CNC(=O)[C@H](CC(C)C)NC(=O)[C@@H](N)CC(C)C)C(=O)NCC(=O)N[C@@H](CCCCN)C(=O)N[C@@H](CCC(=O)O)C(=O)N[C@@H](Cc1ccccc1)C(=O)N[C@@H](CCCCN)C(=O)N[C@@H](CCCNC(=N)N)C(=O)N[C@H](C(=O)N[C@H](C(=O)N[C@@H](CCC(N)=O)C(=O)N[C@@H](CCCNC(=N)N)C(=O)N[C@H](C(=O)N[C@@H](CCCCN)C(=O)N[C@@H](CC(=O)O)C(=O)N[C@@H](Cc1ccccc1)C(=O)N[C@@H](CC(C)C)C(=O)N[C@@H](CCCNC(=N)N)C(=O)N[C@@H](CC(N)=O)C(=O)N[C@@H](CC(C)C)C(=O)N[C@H](C(=O)N1CCC[C@H]1C(=O)N[C@@H](CCCNC(=N)N)C(=O)N[C@H](C(=O)N[C@@H](CCC(=O)O)C(=O)N[C@@H](CO)C(N)=O)[C@@H](C)O)C(C)C)[C@@H](C)CC)C(C)C)[C@@H](C)CC` [SEQ ID NO: 1], the Toxicity result in series [1] (peptide 5 μM, 3 hours or 24 hours, WST-1 conversion) is recorded as “++”. Further, in series [1] (primary human nasal epithelial cells), the “toxicity, in words” value is recorded as “more toxic”.

On to “RRWVQRWIRRWRPWV-NH2 [SEQ ID NO: 6, RRWVQRWIRRWRPWV]”, for which, in the series on Pseudomonas aeruginosa, the “Bioscreen MIC values Pseudomonas aeruginosa” value was found to be 2.5 µM. Moreover, the “Bioscreen MIC values Staphylococcus aureus” value in the series on Staphylococcus aureus is 10 µM.

For “RRWVQRWIRRWRPKVAAARRWV-NH2 [SEQ ID NO: 10]”, the “Bioscreen MIC values Pseudomonas aeruginosa” value in the series with Pseudomonas aeruginosa turned out to be 1.25 µM. In addition, the “Bioscreen MIC values Staphylococcus aureus” value in the series with Staphylococcus aureus was determined as 10 µM.

Consider “RFGRFLRKIRRFRPKVTITIQGSARF-NH2 [SEQ ID NO: 2, reference compound]”, for which, in the series with Pseudomonas aeruginosa, the “Bioscreen MIC values Pseudomonas aeruginosa” value was 1.25 µM. The “Bioscreen MIC values Staphylococcus aureus” value in the series with Staphylococcus aureus worked out at 1.25 µM. In addition, in series [1], the “toxicity, in words” value was “extremely toxic”.

For the molecule “RRWVRRWIRRWRPKV-NH2 [SEQ ID NO: 25, RRWVRRWIRRWRPKV]”, in the series on Pseudomonas aeruginosa, the “Bioscreen MIC values Pseudomonas aeruginosa” value was determined as 5 µM. For the same molecule, the “Bioscreen MIC values Staphylococcus aureus” value in the series on Staphylococcus aureus is more than 10 µM.

Turning to “APKAMRRWVQRWIRRWRPLQKKGI-NH2 [SEQ ID NO: 20]”, the “Bioscreen MIC values Pseudomonas aeruginosa” value in the series on Pseudomonas aeruginosa is 10 µM. Besides, in the series with Staphylococcus aureus, the “Bioscreen MIC values Staphylococcus aureus” value is more than 10 µM.

Regarding “RRWVQRWIRRWRPKVAAARRWVQRWIRRWRPKV-NH2 [SEQ ID NO: 12]”, the “Bioscreen MIC values Pseudomonas aeruginosa” value in the series on Pseudomonas aeruginosa was determined as 1.25 µM. For the same molecule, the “Bioscreen MIC values Staphylococcus aureus” value in the series on Staphylococcus aureus is 1.25 µM.

Regarding “APKAMRRWVQRWIRRWRPKVLQKKGI-NH2 [SEQ ID NO: 18]”, in the series on Pseudomonas aeruginosa, the “Bioscreen MIC values Pseudomonas aeruginosa” value was 5 µM. Also, in the series on Staphylococcus aureus, the “Bioscreen MIC values Staphylococcus aureus” value is more than 10 µM.

Regarding “APKAMRRWVQRWIRRWRPKVLQKNNYL-NH2 [SEQ ID NO: 21]”, in the series on Pseudomonas aeruginosa, the “Bioscreen MIC values Pseudomonas aeruginosa” value was found to be 2.5 µM. In the series on Staphylococcus aureus, the “Bioscreen MIC values Staphylococcus aureus” value is more than 10 µM.

With “RRWVQRWIRRWRPKRIVQRIKDFLRNLV-NH2 [SEQ ID NO: 11]”, the “Bioscreen MIC values Pseudomonas aeruginosa” value in the series on Pseudomonas aeruginosa stood at 1.25 µM. The “Bioscreen MIC values Staphylococcus aureus” value with Staphylococcus aureus is 2.5 µM.

As to “RRWVQRWIRRWRPKLQKKGI-NH2 [SEQ ID NO: 16]”, the “Bioscreen MIC values Pseudomonas aeruginosa” value with Pseudomonas aeruginosa stood at 10 µM. Also, in the series with Staphylococcus aureus, the “Bioscreen MIC values Staphylococcus aureus” value was more than 10 µM.

Consider “APKAMRRWVQRWIRRWRPRLQKKGI-NH2 [SEQ ID NO: 19]”, for which, in the series on Pseudomonas aeruginosa, the “Bioscreen MIC values Pseudomonas aeruginosa” value amounted to 5 µM. Further, in the series on Staphylococcus aureus, the “Bioscreen MIC values Staphylococcus aureus” value was more than 10 µM.

As to “RRWVQRWIRRWRPKW-NH2 [SEQ ID NO: 9, RRWVQRWIRRWRPKW]”, the “Bioscreen MIC values Pseudomonas aeruginosa” value with Pseudomonas aeruginosa amounted to 5 µM. Also, the “Bioscreen MIC values Staphylococcus aureus” value in the series on Staphylococcus aureus came out at 10 µM.

Regarding “APKAMRRWVQRWIRRWRPKVLLHYPSQKF-NH2 [SEQ ID NO: 23]”, in the series on Pseudomonas aeruginosa, the “Bioscreen MIC values Pseudomonas aeruginosa” value is 2.5 µM. Besides, the “Bioscreen MIC values Staphylococcus aureus” value in the series on Staphylococcus aureus was more than 10 µM.

On to “RRWVQRWIRRWRPK-NH2 [SEQ ID NO: 8, RRWVQRWIRRWRPK]”, for which the “Bioscreen MIC values Pseudomonas aeruginosa” value in the series on Pseudomonas aeruginosa stood at 10 µM. Also, the “Bioscreen MIC values Staphylococcus aureus” value in the series on Staphylococcus aureus is more than 10 µM.

For the molecule “APKAMRWVQRWIRRWRPKLQKKGI-NH2 [SEQ ID NO: 26]”, the “Bioscreen MIC values Pseudomonas aeruginosa” value with Pseudomonas aeruginosa stood at 10 µM. Also, the “Bioscreen MIC values Staphylococcus aureus” value in the series on Staphylococcus aureus is more than 10 µM.

Turning to “RRWVQRWIRRWRPKVLQKKGI-NH2 [SEQ ID NO: 14]”, the “Bioscreen MIC values Pseudomonas aeruginosa” value with Pseudomonas aeruginosa was 10 µM. The “Bioscreen MIC values Staphylococcus aureus” value with Staphylococcus aureus was more than 10 µM.

For the origin of these results see patent US11130781B2, “Antimicrobial peptides and their use” (UNIVERSITEIT UTRECHT HOLDING B.V., priority 2017, dated 2021).
